Experimental data from US20240254089A1, “MODULATORS OF MAS-RELATED G-PROTEIN RECEPTOR X4 AND RELATED PRODUCTS AND METHODS” (ESCIENT PHARMACEUTICALS, INC., priority 2020, published 2024).

Each molecule was assayed against T1, human MRGPR X4 (Homo sapiens, UniProt Q96LA9) (assay: MRGPR X4 antagonist activity, IP-One Gq HTRF assay in stably transfected HEK cells). Settings: not given.
T1 construct: expressed in transfected cells
Format: cell-based
Method in brief: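 Human MRGPR X4-expressing HEK cells, 20,000/well, were incubated with compound (10-point curve, 10 uM top, 1:3 dilutions) plus agonist (10 μM bilirubin, 20 μM deoxycholic acid or 100 μM conjugated bilirubin) in Tris/NaCl/LiCl buffer, pH 8, for 1 h at 37 °C, then 30 min at room temperature. IP-1 was read by HTRF, and IC50 was taken from the HTRF ratio.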

T1 sequence (Q96LA9 whole entry): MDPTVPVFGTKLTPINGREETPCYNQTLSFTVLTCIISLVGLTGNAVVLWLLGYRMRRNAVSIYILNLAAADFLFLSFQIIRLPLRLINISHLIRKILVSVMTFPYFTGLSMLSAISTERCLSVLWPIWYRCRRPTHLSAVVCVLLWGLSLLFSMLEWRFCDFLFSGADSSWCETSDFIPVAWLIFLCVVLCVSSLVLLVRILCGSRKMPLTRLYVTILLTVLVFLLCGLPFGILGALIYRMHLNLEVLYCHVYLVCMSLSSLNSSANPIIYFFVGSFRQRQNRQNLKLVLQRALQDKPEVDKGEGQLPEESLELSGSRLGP

`O=C(CNC(=O)c1nn(Cc2ccc(Cl)cc2)c2ccccc12)c1ccc(F)cc1F` [Compound 380] and `COc1cccc(F)c1CNC(=O)c1nn(Cc2ccc(Cl)cc2)c2ccccc12` [Compound 335] cannot be ordered by IC50: > 2500 nM for the first, > 2500 nM for the second.

`O=C(NCCc1nnc2ccccn12)c1nn(Cc2ccc3cc[nH]c3c2)c2ccccc12` [Compound 556] and `O=C(NCCc1nnc2ccccn12)c1nn(Cc2ccc3occc3c2)c2ccccc12` [Compound 493] cannot be ordered by IC50: < 100 nM for the first, < 100 nM for the second.

First: O=C(NCCc1nnc2ccccn12)c1nn(CC2CCC(F)(F)CC2)c2ccccc12 [Compound 489]
Second: O=C(NCCc1nnc2ccccn12)c1nn(CCC2CCCCC2)c2ccccc12 [Compound 402, N-(2-([1,2,4]triazolo[4,3-a]pyridin-3-yl)ethyl)-1-(2-0cyclohexylethyl)-1H-indazole-3-carboxamide]
The IC50 of the first is higher: 501 to 1000 nM for the first, 100 to 500 nM for the second.

First: Cn1c(Cn2nc(C(=O)NCCc3nnc4ccccn34)c3ccccc32)nc2cc(F)ccc21 [Compound 574]
Second: CCn1c(Cn2nc(C(=O)NCCc3nnc4ccccn34)c3ccccc32)nc2ccccc21 [Compound 480]
The IC50 of the first is lower: 100 to 500 nM for the first, 501 to 1000 nM for the second. The first is the more potent here.

Compared with `Cc1ccc(Cn2nc(C(=O)NCCc3cccnc3)c3ccccc32)cc1` [Compound 52], `N#Cc1ccc(Cn2nc(C(=O)NCCc3cccnc3)c3ccccc32)cc1` [Compound 72] is higher in IC50: 100 to 500 nM for the first, 501 to 1000 nM for the second. The first is the more potent here.

Compared with `Cc1c(C(=O)NCCc2cccnc2)c2ccccc2n1Cc1ccc(Cl)cc1` [Compound 227], `Cc1ccc(CCNC(=O)c2cn(Cc3ccc(Cl)cc3)c3ccccc23)cn1` [Compound 151] is lower in IC50: > 2500 nM for the first, < 100 nM for the second. The second is the more potent here.

Compared with `O=C(NCc1ccc(-n2ccnc2)cc1)c1nn(Cc2ccc(Cl)cc2)c2ccccc12` [Compound 426], `CCOc1ccc(CCNC(=O)c2nn(Cc3ccc(Cl)cc3)c3ccccc23)cc1` [Compound 365] is higher in IC50: 1000 to 2500 nM for the first, > 2500 nM for the second.

`O=C(NCCc1nnc2ccccn12)c1nn(Cc2ccc(Cl)c(Cl)c2)c2ccccc12` [Compound 526] and `O=C(NCCc1nnc2ccccn12)c1nn(Cc2ccc(Cl)cc2)c2ccccc12` [Compound 10] cannot be ordered by IC50: < 100 nM for the first, < 100 nM for the second.

`O=C(Nc1cncnc1)c1nn(Cc2ccc(Cl)cc2)c2ccccc12` [Compound 133] and `O=C(Nc1ccc2cccnc2c1)c1nn(Cc2ccc(Cl)cc2)c2ccccc12` [Compound 111] fall in the same range of IC50: 1000 to 2500 nM for the first, 1000 to 2500 nM for the second.

First: O=C(NCCc1nnc2ccccn12)c1nn(Cc2cn3cc(Br)ccc3n2)c2ccccc12 [Compound 502]
Second: O=C(NCCc1nnc2ccccn12)c1nn(Cc2ccc3ncccc3c2)c2ccccc12 [Compound 458]
The IC50 of the first is higher: > 2500 nM for the first, 501 to 1000 nM for the second.

`O=C(NCCc1cccnc1)c1nn(Cc2ccc(Cl)cc2F)c2ccccc12` [Compound 18] and `O=C(NCCc1cccnc1)c1nn(Cc2ccc(Cl)c(Cl)c2)c2ccccc12` [Compound 22] cannot be ordered by IC50: < 100 nM for the first, < 100 nM for the second.

Compared with `Cc1cccc(CCNC(=O)c2nn(Cc3ccc(Cl)cc3)c3ccccc23)c1` [Compound 362], `O=C(NCCc1ccccc1O)c1nn(Cc2ccc(Cl)cc2)c2ccccc12` [Compound 20] is lower in IC50: 1000 to 2500 nM for the first, < 100 nM for the second. The second is the more potent here.

Compared with `COc1ccc(-c2nc(Cn3nc(C(=O)NCCc4nnc5ccccn45)c4ccccc43)cs2)cc1` [Compound 499], `C#Cc1ccc(Cn2nc(C(=O)NCCc3nnc4ccccn34)c3ccccc32)cc1` [Compound 445, N-(2-([1,2,4]triazolo[4,3-a]pyridin-3-yl)ethyl)-1-(4-ethynylbenzyl)-1H-indazole-3-carboxamide] is lower in IC50: 501 to 1000 nM for the first, 100 to 500 nM for the second.

`COc1cc(Cl)ccc1Cn1nc(C(=O)NCCc2nnc3n2CCCCC3)c2ccccc21` [Compound 64] and `CC(C)c1ccc(Cn2nc(C(=O)NCCc3nnc4n3CCCCC4)c3ccccc32)cc1` [Compound 35] fall in the same range of IC50: 100 to 500 nM for the first, 100 to 500 nM for the second.

First: O=C(NCCc1cnccn1)c1cn(Cc2ccc(Cl)cc2)c2ccccc12 [Compound 171]
Second: N#Cc1ccc(Cn2cc(C(=O)NCCc3ccccn3)c3ccccc32)cc1 [Compound 184]
The IC50 of the first is lower: 100 to 500 nM for the first, 501 to 1000 nM for the second.

Compared with `Cc1oc(-c2ccccc2F)nc1Cn1nc(C(=O)NCCc2nnc3ccccn23)c2ccccc21` [Compound 514], `Cc1c(Cn2nc(C(=O)NCCc3nnc4ccccn34)c3ccccc32)oc2ccccc12` [Compound 573] is lower in IC50: 100 to 500 nM for the first, < 100 nM for the second.

Compared with `Cc1ccc(Cn2nc(C(=O)NCCc3nnc4n3CCC4)c3ccccc32)cc1` [Compound 59], `O=C(NCCc1nnc2n1CCCCC2)c1nn(Cc2ccc(Cl)cc2)c2ccc(Cl)cc12` [Compound 8] is lower in IC50: 100 to 500 nM for the first, < 100 nM for the second.

Compared with `O=C(NCCc1nnc2ccccn12)c1nn(Cc2cnn(-c3ccccc3)c2)c2ccccc12` [Compound 498], `N#Cc1ccccc1Cn1nc(C(=O)NCCc2nnc3ccccn23)c2ccccc21` [Compound 409] is higher in IC50: 100 to 500 nM for the first, 1000 to 2500 nM for the second. The first is the more potent here.

Compared with `O=C(NCCOc1ccccc1)c1nn(Cc2ccc(Cl)cc2)c2ccccc12` [Compound 381], `O=C(NCCc1ccccn1)c1nn(Cc2ccc(Cl)cc2)c2ccccc12` [Compound 23] is lower in IC50: 1000 to 2500 nM for the first, < 100 nM for the second.

`O=C(O)c1nn(Cc2ccc(OC(F)F)cc2)c2ccccc12` [Compound 325] and `O=C(O)c1nn(Cc2ccc(F)cc2)c2ccccc12` [Compound 331] cannot be ordered by IC50: > 2500 nM for the first, > 2500 nM for the second.

Compared with `COc1cccc(CCNC(=O)c2nn(Cc3ccc(Cl)cc3)c3ccccc23)n1` [Compound 75], `Cc1ccc(Cn2nc(C(=O)NCCc3ccccn3)c3ccccc32)cc1` [Compound 63] is lower in IC50: 501 to 1000 nM for the first, 100 to 500 nM for the second.

First: O=C(NCCc1c[nH]c2ccccc12)c1nn(Cc2ccc(OC(F)F)cc2)c2ccccc12 [Compound 71]
Second: Cc1[nH]c2ccc(O)cc2c1CCNC(=O)c1nn(Cc2ccc(Cl)cc2)c2ccccc12 [Compound 416]
The IC50 of the first is higher: 501 to 1000 nM for the first, < 100 nM for the second. The second is the more potent here.

First: O=C(NCCc1nc2c(s1)CCCC2)c1nn(Cc2ccc(Cl)c(F)c2)c2ccccc12 [Compound 54]
Second: Cc1noc(C)c1CCCNC(=O)c1nn(Cc2ccc(Cl)cc2)c2ccccc12 [Compound 383]
The IC50 of the first is lower: 100 to 500 nM for the first, 1000 to 2500 nM for the second. The first is the more potent here.

Compared with `O=C(NCCc1ccc(Cl)c(Cl)c1)c1cn(Cc2ccc(Cl)cc2)c2ccccc12` [Compound 344], `O=C(NCCc1cccc(C(F)(F)F)c1)c1cn(Cc2ccc(Cl)cc2)c2ccccc12` [Compound 206] is lower in IC50: > 2500 nM for the first, 1000 to 2500 nM for the second.

First: O=C(NCCc1nnc2ccccn12)c1nn(Cc2ncc3cc(Cl)ccc3n2)c2ccccc12 [Compound 436]
Second: O=C(NCCc1nnc2ccccn12)c1nn(Cc2ccc(C3CC3)cc2)c2ccccc12 [Compound 490]
The IC50 of the first is higher: 100 to 500 nM for the first, < 100 nM for the second.

`CS(=O)(=O)c1ccccc1CNC(=O)c1nn(Cc2ccc(Cl)cc2)c2ccccc12` [Compound 379] and `O=C(NCc1cccc2nc[nH]c12)c1nn(Cc2ccc(Cl)cc2)c2ccccc12` [Compound 475] cannot be ordered by IC50: > 2500 nM for the first, > 2500 nM for the second.

`Cc1ccc(CNC(=O)c2nn(Cc3ccc(Cl)cc3)c3ccccc23)nn1` [Compound 334] and `N#Cc1ccc2nc(CNC(=O)c3nn(Cc4ccc(Cl)cc4)c4ccccc34)cn2c1` [Compound 424] fall in the same range of IC50: 501 to 1000 nM for the first, 501 to 1000 nM for the second.

`N#Cc1cccc2c1c(C(=O)NCCc1nnc3ccccn13)nn2Cc1ccc(Cl)cc1` [Compound 546] and `COc1ccc2c(c1)c(C(=O)NCCc1nnc3ccccn13)nn2Cc1ccc(Cl)cc1` [Compound 543] fall in the same range of IC50: 100 to 500 nM for the first, 100 to 500 nM for the second.

First: O=C(NCCc1ccc(F)cc1)c1cn(Cc2cccc(F)c2)c2ccccc12 [Compound 236]
Second: O=C(NCCc1ccc(Cl)c(F)c1)c1cn(Cc2cccc(F)c2)c2ccccc12 [Compound 210]
The IC50 of the first is higher: > 2500 nM for the first, 1000 to 2500 nM for the second. The second is the more potent here.

First: Cc1ccc(Cn2cc(C(=O)NCc3ccccn3)c3ccccc32)cc1 [Compound 229]
Second: O=C(NCCc1cccnc1)c1cn(Cc2ccccc2Cl)c2ccccc12 [Compound 183]
The IC50 of the first is higher: > 2500 nM for the first, 501 to 1000 nM for the second.

Compared with `O=C(NCCc1ccccc1C(F)(F)F)c1cn(Cc2ccc(Cl)cc2)c2ccccc12` [Compound 190], `O=C(CNC(=O)c1nn(Cc2ccc(Cl)cc2)c2ccccc12)NCC(F)(F)F` [Compound 347] is higher in IC50: 501 to 1000 nM for the first, > 2500 nM for the second.

First: Cc1ccc(Cn2nc(C(=O)NCCc3cccnc3)c3c(F)cccc32)cc1 [Compound 70]
Second: CC1(c2cn(CCNC(=O)c3nn(Cc4ccc(Cl)cc4)c4ccccc34)nn2)COC1 [Compound 139]
The IC50 of the first is higher: 501 to 1000 nM for the first, 100 to 500 nM for the second. The second is the more potent here.

First: COC1CN(CCn2cc(C(=O)NCCc3ccccn3)c3ccccc32)C1 [Compound 228]
Second: N=C(N)NCCCCNC(=O)c1nn(Cc2ccc(Cl)cc2)c2ccccc12 [Compound 346]
The IC50 of the first is higher: > 2500 nM for the first, 1000 to 2500 nM for the second.

Same assay, conditions: versus 20 μM deoxycholic acid agonist; HEK cells expressing human MRGPR X4; read-out: MRGPRX4 Antagonist Activity

`Cc1cccc(NC(=O)CS(=O)(=O)c2cn(Cc3ccc(Cl)cc3)c3ccccc23)c1` [Compound 243] and `O=C(CS(=O)(=O)c1cn(Cc2ccc(Cl)cc2)c2ccccc12)Nc1ccccc1` [Compound 242] fall in the same range of IC50: 501 to 1000 nM for the first, 501 to 1000 nM for the second.

`CC(C)NC(=O)CS(=O)(=O)c1cn(Cc2ccc(Cl)cc2)c2ccccc12` [Compound 248] and `Cc1cccc(S(=O)(=O)NC(=O)c2nn(Cc3ccc(Cl)cc3)c3ccccc23)c1` [Compound 279] fall in the same range of IC50: 1000 to 2500 nM for the first, 1000 to 2500 nM for the second.

`O=C(CCn1nc(C(=O)NCCc2nnc3ccccn23)c2ccccc21)c1ccc(F)cc1` [Compound 443] and `O=C(NCCn1cc(C2CCNCC2)nn1)c1nn(Cc2ccc(Cl)cc2)c2ccccc12` [Compound 146] cannot be ordered by IC50: > 2500 nM for the first, > 2500 nM for the second.

Compared with `O=C(NCCn1cc(CN2CCS(=O)(=O)CC2)nn1)c1nn(Cc2ccc(Cl)cc2)c2ccccc12` [Compound 147], `O=C(CCc1cccnc1)Nc1nn(Cc2ccc(Cl)cc2)c2ccccc12` [Compound 148, N-(1-(4-chlorobenzyl)-1H-indazol-3-yl)-3-(pyridin-3-yl)-propanamide] is lower in IC50: > 2500 nM for the first, 1000 to 2500 nM for the second.

`Cc1cccc(S(=O)(=O)NC(=O)c2nn(Cc3ccc(OC(F)F)cc3)c3ccccc23)c1F` [Compound 278] and `N#Cc1ccc(S(=O)(=O)NC(=O)c2nn(Cc3ccc(OC(F)F)cc3)c3ccccc23)cc1` [Compound 280] fall in the same range of IC50: 1000 to 2500 nM for the first, 1000 to 2500 nM for the second.

For `O=C(CSc1cn(Cc2ccc(Br)cc2)c2ccccc12)N1CCCC1` [Compound 315, 2-(4(1H-indol-3-yl)thio)-1-(pyrrolidin-1-yl)ethan-1-one], the IC50 was 1000 to 2500 nM.
